A word on the IC50: it is the concentration needed to halve the response being measured. High values mean weaker potency, low ones greater potency. The term Ki denotes a measure of affinity in units of concentration, obtained from inhibition or displacement. Lower therefore signals a stronger hold on the target.

The target of experiment [1] is Sodium-dependent dopamine transporter (Homo sapiens, UniProt Q01959). The format is cell-based, HEK293.
Experiment [2] addresses Sodium-dependent serotonin transporter (Homo sapiens, UniProt P31645). It counts as cell-based, HEK293.
The target of experiment [3] is Sodium-dependent noradrenaline transporter (Homo sapiens, UniProt P23975). The experiment can be described thus: Inhibition of [3H]norepinephrine uptake at human NET expressed in HEK293 cells preincubated for 10 mins prior to substrate addition measured after 4 mins by […]. The format is cell-based.
Sequence of Sodium-dependent noradrenaline transporter (P23975 whole entry): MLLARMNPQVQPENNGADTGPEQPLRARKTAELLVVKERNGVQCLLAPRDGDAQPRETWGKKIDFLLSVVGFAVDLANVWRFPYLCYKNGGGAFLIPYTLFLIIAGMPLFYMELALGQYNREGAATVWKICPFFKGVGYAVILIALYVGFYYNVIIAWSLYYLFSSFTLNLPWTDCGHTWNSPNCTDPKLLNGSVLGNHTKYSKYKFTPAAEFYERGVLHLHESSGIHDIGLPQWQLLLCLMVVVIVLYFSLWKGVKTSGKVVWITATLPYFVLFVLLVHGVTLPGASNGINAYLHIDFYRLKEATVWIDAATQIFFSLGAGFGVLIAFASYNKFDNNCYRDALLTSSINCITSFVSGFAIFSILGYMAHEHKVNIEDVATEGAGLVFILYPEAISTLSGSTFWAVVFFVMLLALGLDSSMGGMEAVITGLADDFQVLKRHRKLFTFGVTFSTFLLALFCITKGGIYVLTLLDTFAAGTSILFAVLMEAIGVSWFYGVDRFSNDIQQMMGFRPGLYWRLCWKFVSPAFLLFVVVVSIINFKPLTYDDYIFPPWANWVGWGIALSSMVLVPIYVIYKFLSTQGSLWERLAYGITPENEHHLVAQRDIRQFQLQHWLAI

Sequence of Sodium-dependent dopamine transporter (Q01959 whole entry): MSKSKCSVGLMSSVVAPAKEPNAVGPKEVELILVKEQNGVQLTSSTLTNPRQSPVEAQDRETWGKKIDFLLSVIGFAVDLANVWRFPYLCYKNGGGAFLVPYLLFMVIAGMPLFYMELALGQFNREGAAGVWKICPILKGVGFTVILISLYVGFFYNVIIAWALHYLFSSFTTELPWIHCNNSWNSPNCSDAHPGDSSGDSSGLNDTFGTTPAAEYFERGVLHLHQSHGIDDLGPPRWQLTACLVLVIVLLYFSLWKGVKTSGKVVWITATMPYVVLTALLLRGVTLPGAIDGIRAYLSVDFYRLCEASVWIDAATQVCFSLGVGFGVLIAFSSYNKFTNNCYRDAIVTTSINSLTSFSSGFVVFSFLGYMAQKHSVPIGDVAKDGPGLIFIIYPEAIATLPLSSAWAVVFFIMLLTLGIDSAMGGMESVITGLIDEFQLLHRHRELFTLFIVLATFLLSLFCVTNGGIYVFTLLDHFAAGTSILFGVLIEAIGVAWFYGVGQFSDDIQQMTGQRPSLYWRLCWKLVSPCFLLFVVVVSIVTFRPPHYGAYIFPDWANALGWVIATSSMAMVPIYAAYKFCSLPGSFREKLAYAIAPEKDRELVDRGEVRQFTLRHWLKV
Sequence of Sodium-dependent serotonin transporter (P31645 whole entry): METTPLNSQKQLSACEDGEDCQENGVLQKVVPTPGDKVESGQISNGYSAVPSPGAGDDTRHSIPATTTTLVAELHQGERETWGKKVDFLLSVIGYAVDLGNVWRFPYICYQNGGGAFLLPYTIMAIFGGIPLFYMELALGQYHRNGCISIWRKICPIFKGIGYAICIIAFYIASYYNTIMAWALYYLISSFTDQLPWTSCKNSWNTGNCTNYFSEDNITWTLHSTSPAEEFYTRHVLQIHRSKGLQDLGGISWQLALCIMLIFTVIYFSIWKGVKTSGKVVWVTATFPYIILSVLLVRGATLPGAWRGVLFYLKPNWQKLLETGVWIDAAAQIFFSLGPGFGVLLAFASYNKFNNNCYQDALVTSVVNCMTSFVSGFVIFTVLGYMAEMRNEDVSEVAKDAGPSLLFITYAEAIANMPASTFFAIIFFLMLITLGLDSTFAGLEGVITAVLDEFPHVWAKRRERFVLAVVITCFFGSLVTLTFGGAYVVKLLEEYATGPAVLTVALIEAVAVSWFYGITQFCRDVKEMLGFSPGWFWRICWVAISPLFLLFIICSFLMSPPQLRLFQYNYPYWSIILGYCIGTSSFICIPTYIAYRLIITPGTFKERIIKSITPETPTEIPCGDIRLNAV

Turning to `CN(C)CCC=C1c2ccccc2CCc2ccccc21` [AMITRIPTYLINE], in experiment [1], it took 12.6 µM to reach half-maximal inhibition (IC50) and the inhibitory constant (Ki) is 6.2 µM.

Regarding `CC(N)Cc1ccc2c(c1)OCO2` (single isomer, unassigned; (-)) [TENAMFETAMINE], the IC50 in experiment [2] is 6.76 µM; in experiment [1], 6.17 µM; in experiment [3], 3.16 µM. In addition, the inhibition constant (Ki) in experiment [2] was determined as 2.31 µM; in experiment [1] it was 2.42 µM; in experiment [3] it was 0.704 µM.

Take `CN[C@@H](C)Cc1ccc2c(c1)OCO2` (single isomer, unassigned; (+)) [MIDOMAFETAMINE]: the IC50 in experiment [2] is 2.75 µM; in experiment [1], 2.4 µM; in experiment [3], 2 µM. Further, the affinity in experiment [1], expressed as Ki, was 0.897 µM.
